{"source": "paper PMC3332334", "about": "(Biochemistry, 2012)", "biological_target": "PA1221 (Pseudomonas aeruginosa, UniProt Q9I4B7)", "experiment": "[…]-PPi exchange assay", "format": "biochemical", "conditions": "2 mM ATP, 0.2 mM PPi, 1 mM MgCl2, pH 7.5, 37 °C"}
{"compound": "CC[C@H](C)[C@H](N)C(=O)O", "note": "[I, Ile]", "values": [{"measurement": "32P-PPi exchange assay", "setting": "5 mM Ile", "value": "Ile, Leu, and Ala utilized as substrates at a lower rate"}]}
{"compound": "CC(C)[C@H](N)C(=O)O", "note": "[V, valine]", "values": [{"measurement": "32P-PPi exchange assay", "setting": "5 mM valine", "value": "Valine resulted in the highest activity"}]}
